Test results reported in ChEMBL document CHEMBL4251615, “Discovery of anilino-furo[2,3-d]pyrimidine derivatives as dual inhibitors of EGFR/HER2 tyrosine kinase and their anticancer activity” (Eur J Med Chem, 2018).

Legend:
[1] = target: Epidermal growth factor receptor (Homo sapiens, UniProt P00533); assay: Inhibition of recombinant human C-terminal His/N-terminal GST-tagged EGFR (668 to 1210 residues) expressed in baculovirus infected Sf9 cells at 10 uM using biotin-labeled poly[Glu:Tyr] (4:1) as substrate after 30 mins by Kinase-Glo plus luminescence assay relative to control
Sequence of Epidermal growth factor receptor (P00533 whole entry, the tested form may be a part): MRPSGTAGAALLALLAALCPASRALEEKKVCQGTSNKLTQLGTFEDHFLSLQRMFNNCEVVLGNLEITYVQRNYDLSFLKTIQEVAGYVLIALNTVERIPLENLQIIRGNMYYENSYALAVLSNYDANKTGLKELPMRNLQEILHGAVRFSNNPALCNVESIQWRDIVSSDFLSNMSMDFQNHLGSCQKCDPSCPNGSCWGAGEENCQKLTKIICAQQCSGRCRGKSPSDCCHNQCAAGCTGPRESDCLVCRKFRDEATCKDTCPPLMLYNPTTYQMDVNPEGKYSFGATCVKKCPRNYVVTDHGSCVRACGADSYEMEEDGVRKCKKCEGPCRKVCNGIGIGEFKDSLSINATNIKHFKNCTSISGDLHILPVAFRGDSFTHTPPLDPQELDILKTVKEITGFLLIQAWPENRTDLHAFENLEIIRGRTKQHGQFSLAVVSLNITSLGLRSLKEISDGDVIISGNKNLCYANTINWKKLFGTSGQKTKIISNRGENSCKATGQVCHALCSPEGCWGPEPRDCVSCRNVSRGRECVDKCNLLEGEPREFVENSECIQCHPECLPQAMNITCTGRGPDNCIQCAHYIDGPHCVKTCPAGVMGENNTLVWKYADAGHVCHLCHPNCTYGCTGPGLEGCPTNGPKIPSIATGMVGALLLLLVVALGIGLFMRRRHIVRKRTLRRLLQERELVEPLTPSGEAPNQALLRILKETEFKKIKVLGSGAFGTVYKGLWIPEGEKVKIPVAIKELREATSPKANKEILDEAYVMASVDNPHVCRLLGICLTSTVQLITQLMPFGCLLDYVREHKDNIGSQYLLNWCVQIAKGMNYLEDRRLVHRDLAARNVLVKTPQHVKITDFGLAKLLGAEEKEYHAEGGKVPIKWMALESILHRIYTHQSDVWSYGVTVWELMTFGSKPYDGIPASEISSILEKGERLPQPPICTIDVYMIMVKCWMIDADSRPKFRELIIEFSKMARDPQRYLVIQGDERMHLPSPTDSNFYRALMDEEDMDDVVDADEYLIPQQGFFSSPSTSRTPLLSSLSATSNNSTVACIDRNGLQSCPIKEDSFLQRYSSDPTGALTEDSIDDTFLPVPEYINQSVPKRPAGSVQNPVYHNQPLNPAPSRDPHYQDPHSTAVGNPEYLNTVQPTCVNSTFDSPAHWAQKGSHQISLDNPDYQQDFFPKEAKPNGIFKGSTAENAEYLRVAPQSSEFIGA

HL-60(TB) = assay: Growth inhibition of human HL-60(TB) cells assessed as cell growth at 10 uM incubated for 48 hrs by sulforhodamine B assay relative to control; assay type: functional; conditions: HL-60, 48 h, read-out: Activity
K562 = assay: Growth inhibition of human K562 cells assessed as cell growth at 10 uM incubated for 48 hrs by sulforhodamine B assay relative to control; assay type: functional; conditions: K562, 48 h, read-out: Activity
MOLT-4 = assay: Growth inhibition of human MOLT4 cells assessed as cell growth at 10 uM incubated for 48 hrs by sulforhodamine B assay relative to control; assay type: functional; conditions: MOLT-4, 48 h, read-out: Activity
RPMI-8226 = assay: Growth inhibition of human RPMI8226 cells assessed as cell growth at 10 uM incubated for 48 hrs by sulforhodamine B assay relative to control; assay type: functional; conditions: RPMI-8226, 48 h, read-out: Activity
SR = assay: Growth inhibition of human SR cells assessed as cell growth at 10 uM incubated for 48 hrs by sulforhodamine B assay relative to control; assay type: functional; conditions: read-out: Activity
A549 = assay: Growth inhibition of human A549/ATCC cells assessed as cell growth at 10 uM incubated for 48 hrs by sulforhodamine B assay relative to control; assay type: functional; conditions: A549, 48 h, read-out: Activity
EKVX = assay: Growth inhibition of human EKVX cells assessed as cell growth at 10 uM incubated for 48 hrs by sulforhodamine B assay relative to control; assay type: functional; conditions: read-out: Activity
NCI-H23 = assay: Growth inhibition of human NCI-H23 cells assessed as cell growth at 10 uM incubated for 48 hrs by sulforhodamine B assay relative to control; assay type: functional; conditions: NCI-H23, 48 h, read-out: Activity
NCI-H322M = assay: Growth inhibition of human NCI-H322M cells assessed as cell growth at 10 uM incubated for 48 hrs by sulforhodamine B assay relative to control; assay type: functional; conditions: read-out: Activity
HCC 2998 = assay: Growth inhibition of human HCC2998 cells assessed as cell growth at 10 uM incubated for 48 hrs by sulforhodamine B assay relative to control; assay type: functional; conditions: HCC 2998, 48 h, read-out: Activity
HCT-116 = assay: Growth inhibition of human HCT116 cells assessed as cell growth at 10 uM incubated for 48 hrs by sulforhodamine B assay relative to control; assay type: functional; conditions: HCT-116, 48 h, read-out: Activity
HT-29 = assay: Growth inhibition of human HT-29 cells assessed as cell growth at 10 uM incubated for 48 hrs by sulforhodamine B assay relative to control; assay type: functional; conditions: HT-29, 48 h, read-out: Activity
SW-620 = assay: Growth inhibition of human SW620 cells assessed as cell growth at 10 uM incubated for 48 hrs by sulforhodamine B assay relative to control; assay type: functional; conditions: SW-620, 48 h, read-out: Activity
SF-295 = assay: Growth inhibition of human SF295 cells assessed as cell growth at 10 uM incubated for 48 hrs by sulforhodamine B assay relative to control; assay type: functional; conditions: SF-295, 48 h, read-out: Activity
SNB-19 = assay: Growth inhibition of human SNB19 cells assessed as cell growth at 10 uM incubated for 48 hrs by sulforhodamine B assay relative to control; assay type: functional; conditions: SNB-19, 48 h, read-out: Activity
M14 = assay: Growth inhibition of human M14 cells assessed as cell growth at 10 uM incubated for 48 hrs by sulforhodamine B assay relative to control; assay type: functional; conditions: M14, 48 h, read-out: Activity
MDA-MB-435 = assay: Growth inhibition of human MDA-MB-435 cells assessed as cell growth at 10 uM incubated for 48 hrs by sulforhodamine B assay relative to control; assay type: functional; conditions: MDA-MB-435, 48 h, read-out: Activity
SK-MEL-2 = assay: Growth inhibition of human SK-MEL-2 cells assessed as cell growth at 10 uM incubated for 48 hrs by sulforhodamine B assay relative to control; assay type: functional; conditions: SK-MEL-2, 48 h, read-out: Activity
SK-MEL-5 = assay: Growth inhibition of human SK-MEL-5 cells assessed as cell growth at 10 uM incubated for 48 hrs by sulforhodamine B assay relative to control; assay type: functional; conditions: SK-MEL-5, 48 h, read-out: Activity
UACC-62 = assay: Growth inhibition of human UACC62 cells assessed as cell growth at 10 uM incubated for 48 hrs by sulforhodamine B assay relative to control; assay type: functional; conditions: UACC-62, 48 h, read-out: Activity
OVCAR-5 = assay: Growth inhibition of human OVCAR5 cells assessed as cell growth at 10 uM incubated for 48 hrs by sulforhodamine B assay relative to control; assay type: functional; conditions: OVCAR-5, 48 h, read-out: Activity
OVCAR-8 = assay: Growth inhibition of human OVCAR8 cells assessed as cell growth at 10 uM incubated for 48 hrs by sulforhodamine B assay relative to control; assay type: functional; conditions: OVCAR-8, 48 h, read-out: Activity
NCI/ADR-RES = assay: Growth inhibition of human NCI/ADR-RES cells assessed as cell growth at 10 uM incubated for 48 hrs by sulforhodamine B assay relative to control; assay type: functional; conditions: read-out: Activity
SK-OV-3 = assay: Growth inhibition of human SKOV3 cells assessed as cell growth at 10 uM incubated for 48 hrs by sulforhodamine B assay relative to control; assay type: functional; conditions: SK-OV-3, 48 h, read-out: Activity
A498 = assay: Growth inhibition of human A498 cells assessed as cell growth at 10 uM incubated for 48 hrs by sulforhodamine B assay relative to control; assay type: functional; conditions: A498, 48 h, read-out: Activity
ACHN = assay: Growth inhibition of human ACHN cells assessed as cell growth at 10 uM incubated for 48 hrs by sulforhodamine B assay relative to control; assay type: functional; conditions: read-out: Activity
CAKI-1 = assay: Growth inhibition of human Caki1 cells assessed as cell growth at 10 uM incubated for 48 hrs by sulforhodamine B assay relative to control; assay type: functional; conditions: CAKI-1, 48 h, read-out: Activity
RXF 393 = assay: Growth inhibition of human RXF393 cells assessed as cell growth at 10 uM incubated for 48 hrs by sulforhodamine B assay relative to control; assay type: functional; conditions: RXF 393, 48 h, read-out: Activity
SN12C = assay: Growth inhibition of human SN12C cells assessed as cell growth at 10 uM incubated for 48 hrs by sulforhodamine B assay relative to control; assay type: functional; conditions: read-out: Activity
UO-31 = assay: Growth inhibition of human UO31 cells assessed as cell growth at 10 uM incubated for 48 hrs by sulforhodamine B assay relative to control; assay type: functional; conditions: UO-31, 48 h, read-out: Activity
MCF7 = assay: Growth inhibition of human MCF7 cells assessed as cell growth at 10 uM incubated for 48 hrs by sulforhodamine B assay relative to control; assay type: functional; conditions: MCF7, 48 h, read-out: Activity
Hs-578T = assay: Growth inhibition of human Hs 578T cells assessed as cell growth at 10 uM incubated for 48 hrs by sulforhodamine B assay relative to control; assay type: functional; conditions: read-out: Activity

Row | SMILES | inhibition [1] [%] | growth at 10 µM (RPMI-8226) [%] | growth at 10 µM (A549) [%] | growth at 10 µM (NCI-H23) [%] | growth at 10 µM (NCI-H322M) [%] | growth at 10 µM (HCC 2998) [%] | growth at 10 µM (HCT-116) [%] | growth at 10 µM (HT-29) [%] | growth at 10 µM (SW-620) [%] | growth at 10 µM (SNB-19) [%] | growth at 10 µM (M14) [%] | growth at 10 µM (MDA-MB-435) [%] | growth at 10 µM (SK-MEL-2) [%] | growth at 10 µM (SK-MEL-5) [%] | growth at 10 µM (UACC-62) [%] | growth at 10 µM (OVCAR-5) [%] | growth at 10 µM (OVCAR-8) [%] | growth at 10 µM (NCI/ADR-RES) [%] | growth at 10 µM (SK-OV-3) [%] | growth at 10 µM (A498) [%] | other results
1 | CCCNC(=O)c1c(C)oc2ncnc(Nc3cccc(Cl)c3)c12 | 65 | 95.4 | 82.7 | 91.5 | 103 | 123 | 105 | 93.8 | 106 | 106 | 115 | 103 | 85.6 | 89.9 | 83.4 | 112 | 96.8 | 94.1 | 85.6 | 74.3 | growth at 10 µM (HL-60(TB)): 96.3%; growth at 10 µM (K562): 90.1%; growth at 10 µM (MOLT-4): 95.4%; growth at 10 µM (SR): 86%; growth at 10 µM (EKVX): 98.8%; growth at 10 µM (SF-295): 90.1%; growth at 10 µM (ACHN): 107%; growth at 10 µM (CAKI-1): 101%; growth at 10 µM (RXF 393): 111%; growth at 10 µM (SN12C): 99.4%; growth at 10 µM (UO-31): 72.4%; growth at 10 µM (MCF7): 93.5%; growth at 10 µM (Hs-578T): 104%
2 | CCOC(=O)c1c(C)oc2ncnc(Nc3ccc(OCc4cccc(C)c4)cc3)c12 | 6 | 117 | 88.9 | 94.9 | 94 | 114 | 90.6 | 87.5 | 101 | 99.7 | 86.5 | 104 | 100 | 99.2 | 80.7 | 107 | 106 | 97 | 96.7 | 84.4 | growth at 10 µM (HL-60(TB)): 108%; growth at 10 µM (K562): 98%; growth at 10 µM (MOLT-4): 115%; growth at 10 µM (SR): 116%; growth at 10 µM (EKVX): 94.5%; growth at 10 µM (SF-295): 101%; growth at 10 µM (ACHN): 98.1%; growth at 10 µM (CAKI-1): 95.6%; growth at 10 µM (RXF 393): 111%; growth at 10 µM (SN12C): 88.6%; growth at 10 µM (UO-31): 101%; growth at 10 µM (MCF7): 99.2%; growth at 10 µM (Hs-578T): 102%
3 | CCOC(=O)c1c(C)oc2ncnc(Nc3ccc(OCc4ccc(Cl)c(Cl)c4)cc3)c12 | 0 | 117 | 95.8 | 95.8 | 97.9 | 109 | 94.5 | 99.7 | 105 | 103 | 101 | 111 | 103 | 103 | 93.2 | 95 | 113 | 103 | 98.9 | 92.3 | growth at 10 µM (HL-60(TB)): 96.6%; growth at 10 µM (K562): 93.8%; growth at 10 µM (MOLT-4): 105%; growth at 10 µM (SR): 90%; growth at 10 µM (EKVX): 102%; growth at 10 µM (SF-295): 94.7%; growth at 10 µM (ACHN): 102%; growth at 10 µM (CAKI-1): 96.1%; growth at 10 µM (RXF 393): 101%; growth at 10 µM (SN12C): 93.3%; growth at 10 µM (UO-31): 98.4%; growth at 10 µM (MCF7): 106%; growth at 10 µM (Hs-578T): 104%
4 | CCOC(=O)c1c(C)oc2ncnc(Nc3ccc(OCc4ccc(Cl)cc4)cc3)c12 | 6 | 111 | 86.5 | 95.4 | 107 | 108 | 98.7 | 94.4 | 106 | 111 | 102 | 104 | 105 | 95.8 | 87.7 | 100 | 107 | 101 | 88 | 91.7 | growth at 10 µM (HL-60(TB)): 91.7%; growth at 10 µM (K562): 83.8%; growth at 10 µM (MOLT-4): 109%; growth at 10 µM (SR): 92.1%; growth at 10 µM (EKVX): 102%; growth at 10 µM (SF-295): 97.9%; growth at 10 µM (ACHN): 101%; growth at 10 µM (CAKI-1): 94%; growth at 10 µM (RXF 393): 85.9%; growth at 10 µM (SN12C): 97.8%; growth at 10 µM (UO-31): 99.5%; growth at 10 µM (MCF7): 102%; growth at 10 µM (Hs-578T): 111%
5 | CCOC(=O)c1c(C)oc2ncnc(Nc3ccc(F)cc3)c12 | 6 | 103 | 99.4 | 91.9 | 101 | 108 | 98.9 | 95.3 | 94.9 | 91.4 | 103 | 101 | 103 | 102 | 88.6 | 91.4 | 106 | 101 | 104 | 80.4 | growth at 10 µM (ACHN): 99%; growth at 10 µM (CAKI-1): 97.9%; growth at 10 µM (RXF 393): 99.8%; growth at 10 µM (SN12C): 92.9%; growth at 10 µM (UO-31): 92.4%; growth at 10 µM (Hs-578T): 96.1%
6 | Cc1oc2ncnc(Nc3cccc(F)c3)c2c1C(=O)NCCO | 20 | 106 | 91 | 99.6 | 104 | 114 | 105 | 96.8 | 103 | 104 | 109 | 108 | 103 | 102 | 92.2 | 100 | 105 | 114 | 89.2 | 83 | growth at 10 µM (ACHN): 103%; growth at 10 µM (CAKI-1): 90.5%; growth at 10 µM (RXF 393): 109%; growth at 10 µM (SN12C): 98.7%; growth at 10 µM (UO-31): 96.5%; growth at 10 µM (Hs-578T): 103%
